Test results as given in ChEMBL document CHEMBL5614370, “Data-oriented protein kinase drug discovery” (Eur J Med Chem, 2024).

Assays:
[1] = target: Phosphatidylinositol 4,5-bisphosphate 3-kinase catalytic subunit alpha isoform (Homo sapiens, UniProt P42336); assay: Inhibition of PI3Kalpha (unknown origin)
[2] = target: Hepatocyte growth factor receptor (Homo sapiens, UniProt P08581); assay: Inhibition of HGF receptor (unknown origin)
[3] = target: Macrophage colony-stimulating factor 1 receptor (Homo sapiens, UniProt P07333); assay: Inhibition of CSF1R (unknown origin)
Sequence of Macrophage colony-stimulating factor 1 receptor (P07333 whole entry): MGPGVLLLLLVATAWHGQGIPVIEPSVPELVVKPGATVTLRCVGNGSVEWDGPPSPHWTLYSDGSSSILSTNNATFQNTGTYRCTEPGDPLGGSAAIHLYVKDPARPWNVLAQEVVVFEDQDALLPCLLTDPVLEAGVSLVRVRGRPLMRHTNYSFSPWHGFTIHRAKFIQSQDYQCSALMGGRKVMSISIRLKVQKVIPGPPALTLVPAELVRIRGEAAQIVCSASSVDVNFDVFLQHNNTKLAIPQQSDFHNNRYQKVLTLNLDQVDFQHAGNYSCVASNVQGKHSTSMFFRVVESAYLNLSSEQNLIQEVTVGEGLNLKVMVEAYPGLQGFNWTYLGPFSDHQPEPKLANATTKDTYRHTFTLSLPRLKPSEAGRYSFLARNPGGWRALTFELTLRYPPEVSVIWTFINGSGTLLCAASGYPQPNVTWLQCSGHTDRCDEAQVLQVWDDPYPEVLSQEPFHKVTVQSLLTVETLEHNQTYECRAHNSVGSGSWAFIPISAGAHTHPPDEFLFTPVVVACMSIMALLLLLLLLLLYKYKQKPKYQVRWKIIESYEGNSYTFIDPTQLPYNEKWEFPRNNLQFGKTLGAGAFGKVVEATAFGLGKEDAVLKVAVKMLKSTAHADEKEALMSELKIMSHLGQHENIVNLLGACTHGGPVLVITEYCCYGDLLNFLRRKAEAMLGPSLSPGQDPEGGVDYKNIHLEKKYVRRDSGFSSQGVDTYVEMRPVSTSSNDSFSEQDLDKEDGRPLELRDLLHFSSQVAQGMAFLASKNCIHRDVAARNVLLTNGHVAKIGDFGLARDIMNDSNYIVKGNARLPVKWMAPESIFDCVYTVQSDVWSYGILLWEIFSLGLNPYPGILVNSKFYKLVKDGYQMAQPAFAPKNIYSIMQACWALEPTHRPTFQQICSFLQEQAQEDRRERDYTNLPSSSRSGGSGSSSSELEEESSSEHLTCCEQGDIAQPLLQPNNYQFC

Sequence of Phosphatidylinositol 4,5-bisphosphate 3-kinase catalytic subunit alpha isoform (P42336 whole entry, canonical isoform): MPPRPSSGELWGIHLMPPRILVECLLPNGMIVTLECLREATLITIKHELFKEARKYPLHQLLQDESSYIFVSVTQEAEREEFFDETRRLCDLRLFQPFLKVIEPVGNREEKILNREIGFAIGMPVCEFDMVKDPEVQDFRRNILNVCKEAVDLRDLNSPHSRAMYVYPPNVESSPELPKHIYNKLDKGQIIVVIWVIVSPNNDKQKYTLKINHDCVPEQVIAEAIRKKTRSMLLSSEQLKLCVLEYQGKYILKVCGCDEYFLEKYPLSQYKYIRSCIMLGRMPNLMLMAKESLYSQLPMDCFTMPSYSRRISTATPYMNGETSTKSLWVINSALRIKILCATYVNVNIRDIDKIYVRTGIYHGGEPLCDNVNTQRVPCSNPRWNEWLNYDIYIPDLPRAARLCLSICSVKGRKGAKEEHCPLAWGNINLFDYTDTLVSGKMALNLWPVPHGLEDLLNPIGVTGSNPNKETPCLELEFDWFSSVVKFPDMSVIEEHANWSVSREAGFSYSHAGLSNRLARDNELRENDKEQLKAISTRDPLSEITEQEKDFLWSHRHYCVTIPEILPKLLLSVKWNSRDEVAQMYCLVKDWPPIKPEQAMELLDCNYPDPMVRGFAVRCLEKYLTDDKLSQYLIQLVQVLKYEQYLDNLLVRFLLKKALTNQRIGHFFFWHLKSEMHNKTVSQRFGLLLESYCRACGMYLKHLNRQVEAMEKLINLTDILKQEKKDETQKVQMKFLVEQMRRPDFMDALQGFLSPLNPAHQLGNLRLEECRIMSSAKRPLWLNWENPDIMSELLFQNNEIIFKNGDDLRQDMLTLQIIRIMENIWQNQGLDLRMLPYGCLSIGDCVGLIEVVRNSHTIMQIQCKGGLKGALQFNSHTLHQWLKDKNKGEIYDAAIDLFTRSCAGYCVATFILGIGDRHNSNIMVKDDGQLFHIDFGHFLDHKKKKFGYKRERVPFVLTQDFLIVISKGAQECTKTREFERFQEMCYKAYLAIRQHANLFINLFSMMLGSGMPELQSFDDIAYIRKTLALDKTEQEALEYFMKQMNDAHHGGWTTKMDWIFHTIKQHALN
Sequence of Hepatocyte growth factor receptor (P08581 whole entry): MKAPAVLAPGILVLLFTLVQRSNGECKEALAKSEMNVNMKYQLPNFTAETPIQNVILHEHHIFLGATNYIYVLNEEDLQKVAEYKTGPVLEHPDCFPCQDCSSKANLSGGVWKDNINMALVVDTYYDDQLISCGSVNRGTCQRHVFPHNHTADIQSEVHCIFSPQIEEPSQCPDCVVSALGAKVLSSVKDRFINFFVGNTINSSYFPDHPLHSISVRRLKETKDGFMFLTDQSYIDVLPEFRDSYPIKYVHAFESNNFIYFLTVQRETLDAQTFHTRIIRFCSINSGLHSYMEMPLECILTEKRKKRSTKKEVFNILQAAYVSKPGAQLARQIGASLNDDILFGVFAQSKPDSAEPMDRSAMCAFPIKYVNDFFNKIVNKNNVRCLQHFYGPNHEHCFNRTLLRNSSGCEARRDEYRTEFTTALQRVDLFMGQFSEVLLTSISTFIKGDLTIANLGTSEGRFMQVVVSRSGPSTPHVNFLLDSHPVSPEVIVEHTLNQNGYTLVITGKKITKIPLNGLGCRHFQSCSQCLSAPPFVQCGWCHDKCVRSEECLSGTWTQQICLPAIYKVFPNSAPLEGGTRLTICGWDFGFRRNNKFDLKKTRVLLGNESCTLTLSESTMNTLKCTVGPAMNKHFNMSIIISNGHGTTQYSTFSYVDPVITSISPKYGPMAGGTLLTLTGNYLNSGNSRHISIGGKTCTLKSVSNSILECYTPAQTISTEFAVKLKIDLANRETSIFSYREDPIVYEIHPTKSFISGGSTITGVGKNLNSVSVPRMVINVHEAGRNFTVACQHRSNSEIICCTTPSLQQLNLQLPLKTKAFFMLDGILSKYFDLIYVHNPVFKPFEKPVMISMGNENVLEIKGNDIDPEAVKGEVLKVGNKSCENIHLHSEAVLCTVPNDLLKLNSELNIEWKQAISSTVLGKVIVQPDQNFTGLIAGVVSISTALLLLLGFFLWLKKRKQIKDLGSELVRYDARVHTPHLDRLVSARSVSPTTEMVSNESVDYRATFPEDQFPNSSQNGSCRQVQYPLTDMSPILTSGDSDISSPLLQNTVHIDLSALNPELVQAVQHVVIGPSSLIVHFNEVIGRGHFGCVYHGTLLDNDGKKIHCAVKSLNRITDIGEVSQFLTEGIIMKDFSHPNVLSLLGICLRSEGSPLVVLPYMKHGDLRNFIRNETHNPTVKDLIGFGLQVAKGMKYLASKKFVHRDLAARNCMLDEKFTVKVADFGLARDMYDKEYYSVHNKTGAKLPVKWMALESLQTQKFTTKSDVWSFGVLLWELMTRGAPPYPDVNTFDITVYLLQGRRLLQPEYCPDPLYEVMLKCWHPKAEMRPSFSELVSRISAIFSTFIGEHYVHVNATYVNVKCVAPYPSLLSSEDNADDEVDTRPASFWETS

Row | IC50 [1] | SMILES | further results
1 | 0.269 nM | c1n[nH]c(-c2nc3c(s2)CCOc2cc(-c4cn[nH]c4)ccc2-3)n1 | 
2 |  | C1=CN(c2ccccc2)CC(CNc2ccc(Oc3ccncc3)cc2)=C1 | IC50 [2]: 8.91 nM
3 | 1.91 nM | c1n[nH]c(-c2nc3c(s2)CCOc2cc(C4CNC4)ccc2-3)n1 | 
4 |  | C1=C(c2cc(C3CNCNC3)ccc2NCc2ncc[nH]2)CCCC1 | IC50 [3]: 2.51 nM
